Source: ChEMBL document CHEMBL1201862, “PubChem BioAssay data set” (2004)
Active and inactive are the calls of the source.

What was measured:
[1] = decrease of insulin promoter-GFP reporter – imaging, high-content screening, mouse beta cells (AID 1628); assay type: functional; settings: MIN6
[2] = luciferase reporter signal suppression in cells – H4 neuroglioma cells, luminescence, dose response (AID 1990); assay type: functional, cell-based
[3] = Luminescence Cell-Based Dose Response HTS to Identify Inhibitors of 5'UTR Stem-Loop Driven Prion Protein mRNA Translation in H4 Neuroglioblastoma Cells. [Related pubchem assays: 1827 (Project Summary), 1813 (Primary HTS)]; assay type: functional
[4] = alpha-synuclein stem-loop luciferase translation blockers – H4 neuroglioma cells, luminescence, confirmation (AID 1988); assay type: functional, cell-based
[5] = MIN6 cell viability loss – mouse insulinoma, cytotoxicity control, dose response (AID 2122); assay type: functional;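 note: confirmatory high-throughput counterscreen run to flag cytotoxic compounds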
[6] = target: T1, Heat shock factor protein 1 (Mus musculus, UniProt P38532); assay: decrease of HSF1-responsive luciferase luminescence – cell-based, NIH3T3, dose retest, confirmation (AID 2382); assay type: functional;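 note: NIH3T3 fibroblasts with HSF1-driven luciferase reporter stressed by proteasome inhibitor MG132; luminescence from HSF1-driven luciferase expression after 8 hours of MG132 stress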
T1 sequence (P38532 whole entry): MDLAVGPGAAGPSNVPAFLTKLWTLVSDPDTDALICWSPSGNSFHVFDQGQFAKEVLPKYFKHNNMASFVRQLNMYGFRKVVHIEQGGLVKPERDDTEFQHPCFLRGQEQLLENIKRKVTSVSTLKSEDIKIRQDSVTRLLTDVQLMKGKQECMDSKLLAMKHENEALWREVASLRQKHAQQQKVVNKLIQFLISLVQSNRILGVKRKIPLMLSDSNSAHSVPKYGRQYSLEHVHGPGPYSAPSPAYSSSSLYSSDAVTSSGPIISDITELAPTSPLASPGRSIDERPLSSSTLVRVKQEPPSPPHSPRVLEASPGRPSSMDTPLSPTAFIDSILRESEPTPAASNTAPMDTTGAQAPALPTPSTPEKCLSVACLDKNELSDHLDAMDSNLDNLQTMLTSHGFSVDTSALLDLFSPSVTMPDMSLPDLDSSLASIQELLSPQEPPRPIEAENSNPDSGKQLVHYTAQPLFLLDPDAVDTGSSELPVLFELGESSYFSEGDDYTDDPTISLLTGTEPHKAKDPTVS

[7] = target: Glucose-6-phosphate 1-dehydrogenase (Homo sapiens, UniProt P11413); assay: inhibition of Homo sapiens G6PD, dose series – biochemical, fluorescence, selectivity assay for P. falciparum G6PD inhibitor project, dose response (AID 504792); assay type: functional
[8] = Counterscreen for AddAB inhibitors: absorbance-based bacterial cell-based high throughput dose response assay for inhibitors of bacterial viability. [Related pubchem assays (depositor defined):AID435030, AID449728, AID449731, AID488942, AID488955, AID488956]; assay type: functional
Large T antigen = Large T antigen (Simian virus 40, UniProt P03070); assay type: functional, Betapolyomavirus macacae;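 note: Confirmatory-stage PubChem screen for compounds that inhibit SV40 T antigen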
[9] = target: T2, Rac GTPase-activating protein 1 (Homo sapiens, UniProt Q9H0H5); assay: blockers of MgcRacGAP-driven Rac1 GTP hydrolysis – biochemical, ADP Hunter fluorescence, primary and confirmatory, confirmation (AID 624330); assay type: functional
T2 sequence (Q9H0H5 whole entry): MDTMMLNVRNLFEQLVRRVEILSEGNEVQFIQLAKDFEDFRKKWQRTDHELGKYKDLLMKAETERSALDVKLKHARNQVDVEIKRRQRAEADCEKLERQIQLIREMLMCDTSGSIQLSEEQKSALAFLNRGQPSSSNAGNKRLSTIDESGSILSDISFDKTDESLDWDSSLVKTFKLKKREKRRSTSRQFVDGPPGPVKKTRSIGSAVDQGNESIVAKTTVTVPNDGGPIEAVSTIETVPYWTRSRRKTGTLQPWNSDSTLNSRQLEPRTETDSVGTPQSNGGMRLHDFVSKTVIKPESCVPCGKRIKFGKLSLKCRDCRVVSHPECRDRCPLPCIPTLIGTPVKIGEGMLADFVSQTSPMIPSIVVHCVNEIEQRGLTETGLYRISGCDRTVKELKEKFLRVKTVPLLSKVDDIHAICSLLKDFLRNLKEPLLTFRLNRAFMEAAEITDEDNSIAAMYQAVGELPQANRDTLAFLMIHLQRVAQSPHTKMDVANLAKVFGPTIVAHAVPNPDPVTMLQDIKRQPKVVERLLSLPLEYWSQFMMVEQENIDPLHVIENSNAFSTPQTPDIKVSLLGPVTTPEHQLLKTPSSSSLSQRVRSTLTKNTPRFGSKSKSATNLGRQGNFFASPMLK

Exodeoxyribonuclease V = target: T3, Exodeoxyribonuclease V (Escherichia coli (strain K12), UniProt P04993+P07648+P08394); assay: RecBCD inhibition via phage-restricted bacterial growth – absorbance, V66 E. coli, mutant T4 phage, counter-screen for AddAB inhibitor project, dose response (AID 492957); assay type: functional, cell-based, Escherichia coli str. K-12 substr. MG1655
T3 sequence (P04993 whole entry): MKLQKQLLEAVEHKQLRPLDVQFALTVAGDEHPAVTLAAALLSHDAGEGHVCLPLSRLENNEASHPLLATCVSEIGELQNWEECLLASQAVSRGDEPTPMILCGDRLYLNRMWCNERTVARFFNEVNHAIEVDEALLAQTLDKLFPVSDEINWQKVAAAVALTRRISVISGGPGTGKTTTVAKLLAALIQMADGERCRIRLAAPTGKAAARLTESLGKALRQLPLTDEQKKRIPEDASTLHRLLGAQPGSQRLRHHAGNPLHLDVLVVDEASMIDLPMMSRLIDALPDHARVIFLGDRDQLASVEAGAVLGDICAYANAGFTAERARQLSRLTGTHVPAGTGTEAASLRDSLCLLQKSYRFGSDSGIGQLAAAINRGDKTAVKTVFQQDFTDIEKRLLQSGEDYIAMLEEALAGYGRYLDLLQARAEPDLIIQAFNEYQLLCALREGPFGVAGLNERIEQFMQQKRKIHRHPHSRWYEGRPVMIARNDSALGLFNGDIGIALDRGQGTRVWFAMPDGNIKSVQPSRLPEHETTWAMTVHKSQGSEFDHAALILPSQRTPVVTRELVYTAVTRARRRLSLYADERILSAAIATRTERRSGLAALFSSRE
T3 sequence (P07648 whole entry): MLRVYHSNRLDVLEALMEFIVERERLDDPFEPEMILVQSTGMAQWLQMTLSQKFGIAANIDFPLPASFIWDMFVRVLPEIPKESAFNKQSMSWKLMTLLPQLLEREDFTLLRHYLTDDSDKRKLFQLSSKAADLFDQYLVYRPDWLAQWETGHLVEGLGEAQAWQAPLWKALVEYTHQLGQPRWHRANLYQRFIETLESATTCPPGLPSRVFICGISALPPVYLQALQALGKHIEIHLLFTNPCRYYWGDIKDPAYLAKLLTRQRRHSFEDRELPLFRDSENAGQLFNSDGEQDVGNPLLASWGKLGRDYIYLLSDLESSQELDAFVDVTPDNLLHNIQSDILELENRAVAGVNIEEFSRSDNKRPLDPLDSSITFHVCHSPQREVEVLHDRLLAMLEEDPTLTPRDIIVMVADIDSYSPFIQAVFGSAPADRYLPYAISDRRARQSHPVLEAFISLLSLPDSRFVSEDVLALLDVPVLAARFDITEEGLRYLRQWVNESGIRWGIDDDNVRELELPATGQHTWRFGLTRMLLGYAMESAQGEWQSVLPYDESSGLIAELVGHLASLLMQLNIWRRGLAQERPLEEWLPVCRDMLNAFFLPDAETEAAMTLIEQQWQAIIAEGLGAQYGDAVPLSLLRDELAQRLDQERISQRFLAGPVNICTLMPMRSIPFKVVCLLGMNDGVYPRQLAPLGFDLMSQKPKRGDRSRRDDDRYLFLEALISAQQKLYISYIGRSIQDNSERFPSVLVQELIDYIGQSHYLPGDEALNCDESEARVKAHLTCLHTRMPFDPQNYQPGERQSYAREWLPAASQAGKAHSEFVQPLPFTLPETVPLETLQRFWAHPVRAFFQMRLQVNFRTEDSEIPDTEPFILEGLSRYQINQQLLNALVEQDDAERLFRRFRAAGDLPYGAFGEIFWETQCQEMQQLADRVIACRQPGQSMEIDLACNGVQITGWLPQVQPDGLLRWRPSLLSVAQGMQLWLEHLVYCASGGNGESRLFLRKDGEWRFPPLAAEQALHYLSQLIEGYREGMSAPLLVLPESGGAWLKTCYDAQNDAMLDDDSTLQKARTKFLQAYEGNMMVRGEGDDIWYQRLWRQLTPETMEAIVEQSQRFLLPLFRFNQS
T3 sequence (P08394 whole entry): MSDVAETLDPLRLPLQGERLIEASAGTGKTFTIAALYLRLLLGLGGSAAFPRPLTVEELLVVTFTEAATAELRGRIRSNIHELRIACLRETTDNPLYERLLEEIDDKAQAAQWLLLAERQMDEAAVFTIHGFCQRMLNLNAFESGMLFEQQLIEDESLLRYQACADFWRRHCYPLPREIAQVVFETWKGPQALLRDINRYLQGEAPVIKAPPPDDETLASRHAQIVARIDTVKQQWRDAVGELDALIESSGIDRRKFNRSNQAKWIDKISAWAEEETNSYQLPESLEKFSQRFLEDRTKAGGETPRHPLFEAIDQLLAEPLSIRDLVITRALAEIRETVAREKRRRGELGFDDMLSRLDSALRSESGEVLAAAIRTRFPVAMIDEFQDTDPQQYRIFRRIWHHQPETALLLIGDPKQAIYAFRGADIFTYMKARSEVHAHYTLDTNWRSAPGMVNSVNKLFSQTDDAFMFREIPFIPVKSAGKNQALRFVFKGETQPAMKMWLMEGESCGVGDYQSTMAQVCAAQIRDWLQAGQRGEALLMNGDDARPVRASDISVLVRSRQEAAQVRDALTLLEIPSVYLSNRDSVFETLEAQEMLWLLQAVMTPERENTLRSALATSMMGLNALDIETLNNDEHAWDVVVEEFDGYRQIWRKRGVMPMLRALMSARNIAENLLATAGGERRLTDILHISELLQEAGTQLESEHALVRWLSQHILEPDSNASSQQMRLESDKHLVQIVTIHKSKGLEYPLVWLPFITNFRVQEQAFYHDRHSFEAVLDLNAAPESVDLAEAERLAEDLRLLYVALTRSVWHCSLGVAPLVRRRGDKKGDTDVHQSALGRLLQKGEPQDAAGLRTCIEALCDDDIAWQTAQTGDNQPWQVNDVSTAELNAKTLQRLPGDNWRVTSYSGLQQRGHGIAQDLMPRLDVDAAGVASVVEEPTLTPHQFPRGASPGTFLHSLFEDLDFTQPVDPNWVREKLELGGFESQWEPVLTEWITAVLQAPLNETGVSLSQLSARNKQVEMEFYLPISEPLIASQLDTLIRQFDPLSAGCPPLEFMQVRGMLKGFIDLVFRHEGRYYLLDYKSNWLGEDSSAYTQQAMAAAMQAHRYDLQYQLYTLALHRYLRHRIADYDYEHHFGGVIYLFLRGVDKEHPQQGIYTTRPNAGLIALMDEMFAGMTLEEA

BJ [10] = assay: cells; assay type: functional, cell-based; settings: Homo sapiens
[11] = DRD fibroblast viability loss – cell-based, non-viral oncogenic, luminescence, dose response (AID 1934); assay type: functional; settings: Homo sapiens
BJ [12] = assay: BJ-TERT fibroblast viability loss – cell-based, RAS-independent, luminescence, dose response (AID 1933); assay type: functional; settings: Homo sapiens
INS1 = assay: INS-1E survival protection against cytokine death – cell-based, luminescence, retest, dose response (AID 449756); assay type: functional; settings: Rattus norvegicus;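 note: cell death triggered by IL-1 beta plus TNF-alpha plus IFN-gamma mixture; protective hits raise ATP signal compared with cytokine alone wells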
BJ [13] = assay: BJ-TERT-LT-ST fibroblast viability loss – cell-based, RAS-independent, luminescence, dose response (AID 1935); assay type: functional; settings: Homo sapiens;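 note: BJ fibroblasts immortalized with TERT plus LT and ST oncogenes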
BJ [14] = assay: growth inhibition of engineered Ras-driven BJ cells – cell-based, alamar blue fluorescence, cherrypicked samples, dose response (AID 2631); assay type: functional; settings: Homo sapiens;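 note: confirmatory dose-response assay in RAS-dependent BJ fibroblasts engineered with TERT, LT and ST, with cytotoxicity read by fluorescence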

Sequence of Glucose-6-phosphate 1-dehydrogenase (P11413 whole entry): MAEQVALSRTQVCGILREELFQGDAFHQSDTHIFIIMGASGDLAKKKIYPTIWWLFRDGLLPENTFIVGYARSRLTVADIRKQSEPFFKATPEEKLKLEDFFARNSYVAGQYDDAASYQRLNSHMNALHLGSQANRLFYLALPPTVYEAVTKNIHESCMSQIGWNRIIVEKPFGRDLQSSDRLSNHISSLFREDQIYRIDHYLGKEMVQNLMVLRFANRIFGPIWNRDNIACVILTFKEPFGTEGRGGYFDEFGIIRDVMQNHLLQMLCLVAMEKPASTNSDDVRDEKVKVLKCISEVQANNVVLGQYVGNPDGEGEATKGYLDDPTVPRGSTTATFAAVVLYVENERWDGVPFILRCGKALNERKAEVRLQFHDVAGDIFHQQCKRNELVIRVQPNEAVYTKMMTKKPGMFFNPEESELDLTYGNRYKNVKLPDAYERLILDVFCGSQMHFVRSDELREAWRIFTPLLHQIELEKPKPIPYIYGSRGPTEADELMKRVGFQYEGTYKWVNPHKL
Sequence of Large T antigen (P03070 whole entry): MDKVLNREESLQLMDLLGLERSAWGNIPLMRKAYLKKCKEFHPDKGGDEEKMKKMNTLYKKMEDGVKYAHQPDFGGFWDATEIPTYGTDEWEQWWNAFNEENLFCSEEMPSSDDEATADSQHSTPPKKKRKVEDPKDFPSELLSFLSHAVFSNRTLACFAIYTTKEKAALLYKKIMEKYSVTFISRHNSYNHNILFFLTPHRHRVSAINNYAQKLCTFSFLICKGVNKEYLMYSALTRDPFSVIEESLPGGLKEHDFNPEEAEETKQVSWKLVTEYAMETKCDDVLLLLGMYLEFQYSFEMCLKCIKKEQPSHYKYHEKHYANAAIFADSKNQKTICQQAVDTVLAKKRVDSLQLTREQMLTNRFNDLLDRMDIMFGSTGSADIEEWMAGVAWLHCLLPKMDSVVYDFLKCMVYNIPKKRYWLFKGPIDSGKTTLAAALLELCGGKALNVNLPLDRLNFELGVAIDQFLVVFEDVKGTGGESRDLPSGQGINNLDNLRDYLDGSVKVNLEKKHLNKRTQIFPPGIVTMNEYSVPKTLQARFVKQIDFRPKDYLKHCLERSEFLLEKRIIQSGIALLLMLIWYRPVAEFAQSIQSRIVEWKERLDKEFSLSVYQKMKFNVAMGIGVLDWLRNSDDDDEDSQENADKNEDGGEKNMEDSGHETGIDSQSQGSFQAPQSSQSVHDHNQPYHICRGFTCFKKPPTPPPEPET

CC(C)CCNc1nnnc2c1sc1nc(N3CCOCC3)c3c(c12)CC(C)(C)SC3
IC50 [1]: 2.29 µM (active)
EC50 [2]: 27.9 µM (active)
EC50 [3]: > 120 µM (not active)
EC50 [4]: > 120 µM (not active)
IC50 [5]: 12.5 µM (inactive)

Cc1nc2ccccn2c1-c1ccnn1S(=O)(=O)c1ccc(F)cc1
EC50 [6]: > 195 µM (not active)
IC50 [7]: > 80 µM (inactive)

CC1(C)OC(=O)C(N=Nc2ccc(O)cc2)=C(O)O1
IC50 [8]: > 119 µM (inactive)
IC50 (Large T antigen): 6.72 µM (active)
IC50 [9]: 20.9 µM (active)
IC50 (Exodeoxyribonuclease V): > 119 µM (inactive)

CC(=O)Nc1ccc(NC(=O)CN(c2cccc([N+](=O)[O-])c2)S(C)(=O)=O)cc1
EC50 (BJ [10]): 3.09 µM (inconclusive)
EC50 [11]: > 150 µM (inconclusive)
EC50 (BJ [12]): > 150 µM (not active)
AC50 (INS1): 6.91 µM (active)
EC50 (BJ [13]): > 150 µM (inconclusive)
EC50 (BJ [14]): 11.8 µM (active)

CC(C)Cc1nc2oc3c(NCC4CCCO4)ncnc3c2c2c1CCC2 (centres undefined)
IC50 [1]: 1.4 µM (active)
IC50 [5]: 4.96 µM (active)
